Experimental data reported in the NIST ThermoML archive (doi:10.1016/j.jct.2004.12.011).
Several values for one entry are separate records, joined by “and”; a condition that tells them apart may be missing. Equal values may be shown once. ± gives the expanded uncertainty stated by the source.

Experiments:
[1] = molar enthalpy of vaporization or sublimation; details: 298.15 K; Crystal 1; DSC
[2] = Molar enthalpy of transition or fusion; details: DSC
[3] = DTA

| molar enthalpy [1] | Molar enthalpy of transition or fusion ([2]; Crystal 1) [kcal/mol] | Molar enthalpy of transition or fusion ([2]; Crystal 2) [kcal/mol] | Triple point temperature ([3]; Crystal 1) [K] | Triple point temperature ([3]; Crystal 2) [K] | Molar enthalpy of transition or fusion ([2]; Crystal 3) [kcal/mol] | Triple point temperature ([3]; Crystal 3) [K] | SMILES |
| --- | --- | --- | --- | --- | --- | --- | --- |
| 28.5 ± 1.53 kcal/mol | 4.49 ± 0.143 | 0.55 ± 0.143 | 363.9 ± 13 | 340.5 ± 3.6 |  |  | O=C(O)CCCC(=O)O [1,5-pentanedioic acid] |
|  | 8.05 ± 0.239 |  | 419 ± 2.8 |  |  |  | O=C(O)CCCCC(=O)O [1,6-hexanedioic acid] |
| 31.8 ± 1.7 kcal/mol | 5.66 ± 0.598 |  | 368.2 ± 3.2 | 366.3 ± 2.8 | 0.359 ± 0.143 | 337.7 ± 3.2 | O=C(O)CCCCCC(=O)O [1,7-heptanedioic acid] |
| 36.1 ± 1.94 kcal/mol | 7.34 ± 0.239 | 2.17 ± 0.0717 | 413.2 ± 0.5 | 403.6 ± 0.5 | 0.478 ± 0.382 | 355.9 ± 1.6 | O=C(O)CCCCCCC(=O)O [1,8-octanedioic acid] |
| 34.5 ± 1.84 kcal/mol | 7.1 ± 0.454 | 0.167 ± 0.143 | 372.4 ± 2.4 | 339.8 ± 8.4 | 0.00239 | 330.6 ± 0.5 | O=C(O)CCCCCCCC(=O)O [1,9-nonanedioic acid] |
|  | 11.1 ± 2.39 | 0.0956 ± 0.0478 | 403.9 ± 0.9 | 370.3 ± 0.5 |  |  | O=C(O)CCCCCCCCC(=O)O [1,10-decanedioic acid] |
| 39.1 kcal/mol and 39.3 kcal/mol | 9.85 ± 0.789 | 0.382 ± 0.239 | 380.1 ± 1.6 | 355.3 ± 0.9 |  |  | O=C(O)CCCCCCCCCC(=O)O [1,11-undecanedioic acid] |
| 41.8 ± 2.22 kcal/mol | 13.5 ± 0.813 |  | 397.3 ± 0.5 |  |  |  | O=C(O)CCCCCCCCCCCCC(=O)O [1,12-dodecanedicarboxylic acid] |
| 41 ± 2.17 kcal/mol | 11.9 ± 0.574 | -0.0239 ± 0.0956 | 400.3 ± 1.3 | 387 ± 1 | 0.0143 ± 0.0359 | 359.5 ± 9.6 | O=C(O)CCCCCCCCCCC(=O)O [1,12-dodecanedioic acid] |
|  | 8.13 ± 0.239 |  | 455.2 ± 2.4 |  |  |  | O=C(O)CCC(=O)O [butanedioic acid] |
|  | 12.5 ± 0.263 |  | 395.4 ± 1.3 |  |  |  | O=C(O)CCCCCCCCCCCCCCC(=O)O [hexadecanedioic acid] |
|  | 11.8 ± 0.239 |  | 386.3 ± 2.8 |  |  |  | O=C(O)CCCCCCCCCCCC(=O)O [tridecanedioic acid] |
